pEC50: −log10 of the molar value.
These compounds were tested against T1, HIV-1 WT RT (Human immunodeficiency virus type 1 group M subtype B, UniProt P03366) (assay: biochemical). Conditions: Table 1; WT RT, 10 µM drug concentration; read-out: %inhibn (10µM).
T1 construct: purified RT protein (0.015 mg/mL) was incubated in a 100 µL reaction mixture

Point of comparison: `Cc1ccccc1-c1nc2ccccc2n1Cc1c(F)cccc1F` [compound 36, 1-(2,6-difluorobenzyl)-2-(2-methylphenyl)benzimidazole], inhibition at 10 µM 71%. Against it:
- Cc1cccc2c1nc(-c1cccc3ccccc13)n2Cc1c(F)cccc1F [compound 37, 1-(2,6-difluorobenzyl)-2-(1-naphthyl)-4-methylbenzimidazole] — lower, 2%
- Cc1cccc2c1nc(-c1ccc(C#N)cc1)n2Cc1c(F)cccc1F [compound 4007] — lower, 26%

Same assay, conditions: Table 2; WT RT, 10 µM drug concentration; read-out: %inhibn (10µM)

Point of comparison: `Fc1cccc(F)c1-c1nc2ccccc2n1Cc1ccccc1` [compound 28, 1-benzyl-2-(2,6-difluorophenyl)benzimidazole], inhibition at 10 µM 71%. Against it:
- Cc1cccc2c1nc(-c1c(F)cccc1F)n2Cc1ccccc1 [compound 29, 1-benzyl-2-(2,6-difluorophenyl)-4-methylbenzimidazole] — higher, 87%
- Cc1cccc2c1nc(-c1c(F)cccc1F)n2Cc1c(Cl)cccc1Cl [compound 30, 1-(2,6-dichlorobenzyl)-2-(2,6-difluorophenyl)-4-methylbenzimidazole] — lower, 58%
- O=S(=O)(c1ccccc1)n1c(-c2c(F)cccc2F)nc2ccccc21 [compound 45] — lower, 52%
- Cc1cccc2c1nc(-c1c(F)cccc1F)n2S(=O)(=O)c1ccccc1 [compound 46] — lower, 39%

Same assay, conditions: Table 3; WT RT, 10 µM drug concentration; read-out: %inhibn (10 µM)

Point of comparison: `Cc1nc2ccccc2n1Cc1c(F)cccc1F` [compound 35, 1-(2,6-difluorobenzyl)-2-methylbenzimidazole], inhibition at 10 µM 22%. Against it:
- Fc1cccc(F)c1COCc1nc2ccccc2n1Cc1c(F)cccc1F [compound 32, 1-(2,6-difluorobenzyl)-2-(2,6-difluorobenzyloxymethyl)benzimidazole] — lower, 7%

Each compound was assayed on WT virus (NL4-3) (assay: microbe, parasite or virus in culture). Conditions: Figures 10-12; result in words.
Type: cell-based, HIV-1
Method: Evaluation of these compounds for the inhibition of HIV-1 was determined as the fifty percent cell culture inhibitory concentration (CIC50) in CEMSS cell culture with WT virus (NL4-3).
In this Example, the antiviral and cellular toxicity of NNRTIs was investigated, using the cytopathic cell killing assay described by Yang (Yang et al., "Characteristics of a Group of Non-nucleoside Reverse Transcriptase Inhibitors with Structural Diversity and Potent Anti-Human Immunodeficiency Virus Activity," Leukemia 9:S75-S85 [1995]). Briefly, in this method cells (e.g., the CEM-SS cell line, available from the NIAID AIDS Research and Reference Program [ARRRP]) were seeded at a density of 5 x 10^3 cells/well, into the wells of a 96-well microtiter plate. The cells were then infected with HIV virus (either mutant or WT), at a multiplicity of infection (MOI) previously determined to provide complete cell killing by 6 days of culture post-infection (e.g., MOI of 0.01-0.05). Each of the HIV isolates was pre-titered to induce equivalent levels of infection based on cell killing or virus production, prior to their use in these assays. A range of test compound concentrations was added to the wells in triplicate (e.g., serial half-log dilutions) to evaluate inhibition of HIV infection. Controls for each assay included drug controls (drug colorimetric control wells), drug cytotoxicity control wells (cells with drug), virus control wells (cells with virus), and cell viability controls (cells only). Positive control drugs (e.g., AZT and ddC) were also run in parallel.
After six days of incubation at 37°C, cell viability was determined spectrophotometrically at 450 nm for each well, using the metabolic reduction of XTT to a soluble colored formazan. (See, Gartner and Popovic, "Virus Isolation and Production, in Aldovini and Walker (eds.), Techniques in HIV Research, Stockton Press, NY, pp. […] [1991]; and Nara and Fischinger, "Quantitative Infectivity Assay for HIV-1 and HIV-2," Nature 332:469-470 [1988]).
The in vitro therapeutic index (TI50) was defined as the fold-difference between the EC50 and IC50. The results for the various compounds are included in Figures 8 and 19.

With `Fc1cccc(F)c1Cn1c(-c2c(F)cccc2F)nc2cc(Br)ccc21` [compound 38, 1-(2,6-Difluorobenzyl)-2-(2,6-difluorophenyl)-5-bromobenzimidazole] the “cytotoxicity and anti-viral effect (summary graph)” value was “inactive”.

Same assay, conditions: Human immunodeficiency virus 1, NL43, CEM-SS, Table 11; CEMSS/NL4-3; NRVC = reduction in viral CPE not seen (footnote); read-out: EC50

Compound `N=C(NO)c1cccc2c1nc(-c1c(F)cccc1F)n2Cc1c(F)cccc1F` [compound 61, N-hydroxy 1-(2,6-difluorobenzyl)-2-(2,6-difluorophenyl)benzimidazole-4-carboxamidine] has a pEC50 of 6.72.

Same assay, conditions: Table 11; CEMSS/NL4-3; NRVC = reduction in viral CPE not seen (footnote)

With “1-(2,6-Difluorobenzyl)-2-(2,6-difluorophenyl)benzimidazole-4-carboxylate [compound 64]” the “EC50 (µM)” value was “NRVC”.
`CN(C)C(=O)c1cccc2c1nc(-c1c(F)cccc1F)n2Cc1c(F)cccc1F` [compound 63, 1-(2,6-difluorobenzyl)-2-(2,6-difluorophenyl)benzimidazole-4-carboxylic acid dimethylamide] was tested, and the “EC50 (µM)” value was “NRVC”.

Same assay, conditions: Table 11; CEMSS/NL4-3; NRVC = reduction in viral CPE not seen (footnote); read-out: EC50

Point of comparison: “1-(2,6-Difluorobenzyl)-2-(2,6-difluorophenyl)-4-isopropenylbenzimidazole [compound 66]”, pEC50 5.84. Against it:
- 1-(2,6-Difluorobenzyl)-2-(2,6-difluorophenyl)-4-hydroxyl-benzimidazole [compound 52] — 0.36 log units higher, 6.20
- 1-(2,6-Difluorobenzyl)-2-(2,6-difluorophenyl)-4-hydroxymethylbenzimidazole [compound 67] — 1.80 log units higher, 7.64
- 1-(2,6-Difluorobenzyl)-2-(2,6-difluorophenyl)-benzimidazole-4-carbaldehyde [compound 68] — 1.08 log units higher, 6.92
- 1-(2,6-difluorobenzyl)-2-(2,6-difluorophenyl)-4-acetoxymethylbenzimidazole [compound 51] — 1.39 log units higher, 7.23
- 1-(2,6-difluorobenzyl)-2-(2,6-difluorophenyl)-4-chloromethylbenzimidazole [compound 69] — 0.90 log units higher, 6.74
- 1-(2,6-difluorobenzyl)-2-(2,6-difluorophenyl)-4-cyanobenzimidazole [compound 60] — 0.53 log units higher, 6.37
- 1-(2,6-difluorobenzyl)-2-(2,6-difluorophenyl)benzimidazol-4-yl-methylamine [compound 71] — 1.59 log units higher, 7.43
- 1-(2,6-difluorobenzyl)-2-(2,6-difluorophenyl)benzimidazole-4-carboxylic acid amide [compound 62] — 0.53 log units lower, 5.31

Source: patent EP1210336B1, “SUBSTITUTED BENZIMIDAZOLES AS NON-NUCLEOSIDE INHIBITORS OF REVERSE TRANSCRIPTASE” (THE UNITED STATES OF AMERICA, as represented by the …, priority 1999, dated 2001)
